The record followed here is BindingDB's records for doi:10.1046/j.1471-4159.2000.740478.x (Janssen Research Foundation, 2000).

Values joined by “and” are separate entries in the source; they are usually repeats but may differ in a detail not shown here. Identical values can stand only once.

The term Ki denotes the dissociation constant of the complex between target and ligand, obtained from inhibition or displacement. Read a high Ki as a looser hold on the target.

This test deals with 5-hydroxytryptamine receptor 4 (Homo sapiens, UniProt Q13639).
5-hydroxytryptamine receptor 4, sequence (Q13639 whole entry): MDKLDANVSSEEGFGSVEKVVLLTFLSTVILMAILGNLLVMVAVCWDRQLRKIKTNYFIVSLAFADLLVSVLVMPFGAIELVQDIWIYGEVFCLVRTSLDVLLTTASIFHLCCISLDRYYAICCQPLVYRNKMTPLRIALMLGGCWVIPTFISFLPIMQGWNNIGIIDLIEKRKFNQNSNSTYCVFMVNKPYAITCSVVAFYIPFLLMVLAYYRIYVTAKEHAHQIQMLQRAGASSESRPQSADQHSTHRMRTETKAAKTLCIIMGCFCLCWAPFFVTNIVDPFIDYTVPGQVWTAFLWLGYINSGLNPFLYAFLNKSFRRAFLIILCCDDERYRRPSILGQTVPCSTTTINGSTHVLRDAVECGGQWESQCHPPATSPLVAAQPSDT
The compound `COc1ccc2[nH]cc(CCN)c2c1` [tryptamine, 5-Methoxy] came in with an inhibitory constant (Ki) of 794 nM. `Cn1cc(C(=O)OCC2CCN(CCNS(C)(=O)=O)CC2)c2ccccc21` [GR 113808]: the inhibition constant (Ki) was 0.31 nM and 0.5 nM.

In the case of `CCOc1cc(N)c(Cl)cc1C(=O)NCC1CN(Cc2ccc(F)cc2)CCO1` (stereo not given) [SMR000469200], the inhibitory constant (Ki) is 200 nM and 631 nM and 126 nM. Next, `CCCCN1CCC(COC(=O)c2cc(Cl)c(N)c3c2OCCO3)CC1` [CAS_121881]: 0.06 nM and 0.03 nM; `COc1ccc2[nH]cc(C=NN=C(N)NCCCCO)c2c1` [SDZ-HTF-919]: 15.8 nM and 10 nM and 25.1 nM.
